1 compound from patent US20240300975A1, “DIMETHYL-SUBSTITUTED THIAZOLOLACTAM COMPOUND AND USE THEREOF” (D3 Bio (Wuxi) Co., Ltd., priority 2021, published 2024) can be followed below.

For one series, the system named is canine plasma albumin. Description: Plasma protein binding (PPB), canine plasma. Format: in vitro ADME. The note with it: ultracentrifugation, 37° C., 4 h. The procedure:
The binding degree of the assay compound to human/mouse/rat/canine/monkey plasma albumin was studied.
• 1) Matrix preparation: on the day of the assay, plasma was thawed in cold water and centrifuged at 3220 rpm for 5 min to remove all clots. The pH of the resulting plasma was measured and adjusted to 7.4±0.1 using 1% phosphoric acid or 1N sodium hydroxide as needed. • 2) Dilution procedure for the assay compound: the assay compound was dissolved in dimethyl sulfoxide (DMSO) to prepare stock solutions with concentrations of 10 mM and 2 mM, respectively. A 40 μM working solution was prepared by diluting 2 μL of stock solution (2 mM) with 98 μL of DMSO. A 400 μM working solution of the control compound was prepared by diluting 10 μL of stock solution with 240 μL of DMSO. The working solution of the compound (5 μL) was mixed well with a blank matrix (995 μL) at a ratio of 1:200 to prepare a loading matrix.
• a) An equal volume of 30 μL of loading matrix (n=2) was transferred to a sample collection plate to prepare a time 0 (TO) sample for residue determination. The sample was immediately matched with the corresponding blank buffer to a final volume of 60 μL, and the volume ratio of plasma to buffer in each well was 1:1. […] The mixture was centrifuged at 4000 rpm for 20 min and 100 μL of supernatant from each sample was analyzed by LC-MS/MS.

In series [1] the test system is human melanoma A375 cells. The series is described as follows: In vivo efficacy in mouse model of human melanoma A375. The note with it: for TGI: PO, BID, day 21, A375 xenograft nude mouse. The procedure:
The anti-tumor effect of WX001 was evaluated using a subcutaneous xenograft tumor model of human melanoma A375 cells in nude mouse.
• Species: mouse • Strain: BALB/c nude mouse • Age: 6-8 weeks old • Gender: female • Body weight: 18-22 grams • Supplier: Vital River Laboratory Animal Technology Co., Ltd.
• 1) Assay cells and culture: Human melanomaA375 cells were cultured in monolayer in vitro. The culture conditions were DMEM medium plus 10% fetal bovine serum, and a 37° C. 5% CO2 incubator. Routine digestion with trypsin-EDTA was performed twice a week for passage. When the cell saturation was 80%-90% and the amount reached the requirement, the cells were harvested, counted, and inoculated; • 2) Tumor tissue inoculation and grouping: 0.1 mL (5×10^5) of A375 cells were subcutaneously inoculated into the right armpit of each mouse. When the average tumor volume reached 170 mm^3, the animals were randomly divided into 4 groups and the administration was started.
• 3) Daily observation of assay animals: The development of this assay protocol and any modifications were evaluated and approved by the Institutional Animal Care and Use Committee (IACUC). The use and welfare of assay animals were carried out in accordance with the regulations of the Association for Assessment and Accreditation of Laboratory Animal Care (AAALAC). Animals were monitored daily for health and death. Routine examinations included observation of tumor growth and the effects of drug treatment on the animals' daily behavior such as behavioral activities, food and water intake (visual inspection only), weight changes (weight measurements twice a week), appearance signs or other abnormalities. Animal deaths and side effects in each group were recorded based on the number of animals in each group.
• a) Vehicle group: 5% DMSO+95% (20% HP-β-CD). • b) Assay compound group: A quantitative amount of the assay compound was weighed in a formulation bottle. A corresponding volume of DMSO was added and then the mixture was vortexed to obtain a clear solution. A corresponding volume of 20% HP-β-CD was added and then the mixture was vortexed to obtain a homogeneous suspension.
• a) Tumor diameter was measured twice a week with a vernier caliper. The calculation formula of tumor volume was: TV=1/2×a×b^2, wherein a and b represent the long and short diameters of tumor, respectively; • b) The tumor-inhibitory efficacy of the compound was evaluated by TGI (%). TGI (%) reflected the inhibition rate of tumor growth. TGI (%) was calculated as follows: TGI (%)={[1−(average tumor volume at the end of administration of a treatment group−average tumor volume at the beginning of administration of this treatment group)]/(average tumor volume at the end of treatment in a solvent control group−average tumor volume at the beginning of treatment in the solvent control group)}×100%.
In general terms: In xenograft studies the graft and the host belong to different species.

For another series, the target named is ERK2 (Homo sapiens (Human), UniProt P28482). The series is described as follows: In vitro ERK2 kinase activity assay (33P-ATP, filter-binding). Format: biochemical. As for the experimental part:
The ability of compounds to inhibit ERK1 and ERK2 kinase activity was measured.
20 mM Hepes (pH 7.5), 10 mM MgCl2, 1 mM ethylenebis(oxyethylenenitrilo)tetraacetic acid (EGTA), 0.02% Brij35, 0.02 mg/mL bovine serum albumin (BSA), 0.1 mM Na3VO4, 2 mM dithiothreitol (DTT), 1% DMSO.
The assay compound was dissolved in 100% DMSO to prepare a stock solution of specific concentration. The compound was serially diluted in DMSO solution using Integra Viaflo Assist smart pipette.
• a) The substrate MBP was prepared in freshly prepared reaction buffer; • b) ERK1 (or ERK2) kinase was added to the above-mentioned MBP solution and mixed gently; • c) The compound dissolved in 100% DMSO was added to the kinase reaction system using ultrasound technology (Echo550; nanoliter range), and the mixture was incubated at room temperature for 20 minutes; • d)^33P-ATP (specific concentration of […]) was added to the reaction system, and the reaction was started at this time; • e) The mixture was incubated at room temperature for 2 hours; • f) The amount of radioactivity was detected by filter-binding method; • g) ERK1 (or ERK2) kinase activity was calculated as the ratio of the remaining kinase activity in the assay sample to the kinase activity of the control group (treated by DMSO).
Curve was fitted using Prism (GraphPad software) and IC50 values were calculated.

Chain of ERK2 (P28482 whole entry): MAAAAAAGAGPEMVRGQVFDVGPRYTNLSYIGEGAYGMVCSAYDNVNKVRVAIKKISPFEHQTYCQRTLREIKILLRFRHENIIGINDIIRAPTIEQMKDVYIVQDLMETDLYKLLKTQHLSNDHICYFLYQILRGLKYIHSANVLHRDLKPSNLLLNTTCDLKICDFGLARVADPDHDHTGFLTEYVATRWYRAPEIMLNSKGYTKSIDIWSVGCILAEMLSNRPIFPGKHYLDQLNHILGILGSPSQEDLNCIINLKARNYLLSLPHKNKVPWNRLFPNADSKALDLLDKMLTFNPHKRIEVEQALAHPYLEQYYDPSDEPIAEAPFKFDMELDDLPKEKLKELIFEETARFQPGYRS

Broadly, the IC50 is the concentration at which inhibition is half-maximal. A higher IC50 goes with a need for much substance. With `Cc1cccc(CN2C(=O)c3nc(-c4nc(Nc5ccnn5C)ncc4C)sc3C2(C)C)n1` [WX001], in the series with canine plasma albumin, the “Plasma protein binding rate (unbound %)” value was determined as 4.1%. Moreover, the TGI in series [1] (5 mg/kg) came to 36%; in series [1] (10 mg/kg), 81%; in series [1] (20 mg/kg) it was 104%. Moreover, the tolerance result in series [1] (5, 10, 20 mg/kg PO BID, during the administration) was “the tolerance is good”. Moreover, in series [1] (5, 10, 20 mg/kg PO BID, to the 21st day), the “body weight of animals” value is recorded as “did not decrease significantly”. The same compound came in with an IC50 at ERK2 of 0.49 nM.
